{"source": "patent US20070094743A1", "about": "“ABCG1/ABCG4-related methods and compositions” (priority 2005, published 2007)", "key": {"ABCG4 mRNA": {"system": "ABCG4 mRNA", "assay": "ABCG4 mRNA levels normalized against β-actin mRNA, Taqman real-time RT-PCR, in mouse macrophages", "type": "cell-based", "conditions": "2 μM, data not shown", "description": "(§1) Where indicated, RNA oligonucleotides targeting both sequences were mixed and used to down-regulate ABCG1 or ABCG4 gene expression. The scrambled control RNA oligonucleotides also were obtained from Dharmacon. An independent set of siRNA targeting ABCG1 (5′[…]3′) or ABCG4 (5′[…]3′) was obtained from Qiagen and used where indicated. For cholesterol efflux assays, mouse peritoneal macrophages were plated in 24- or 48-well plates and cultured in 10% fetal bovine serum and DMEM media at 37° C. for 24 hours. Cells were then transfected with siRNA and LipofectAMINE 2000 at the indicated concentration and labeled with isotopic cholesterol (2 μCi/ml [^3H]cholesterol in 1% fetal bovine serum) in the presence or absence of TO901317 (2 μM) for 48 hours. Cells were washed twice and equilibrated for 30 minutes for the third wash, and then HDL or other acceptors were added for the indicated period. Levels of ABCG1 and ABCG4 mRNAs normalized against β-actin mRNA were determined using Taqman real-time quantititative RT-PCR. The primers and probes were from Applied Biosystems."}, "ABCG1 mRNA": {"system": "ABCG1 mRNA", "assay": "ABCG1 mRNA levels normalized against β-actin mRNA, Taqman real-time RT-PCR, in mouse macrophages", "type": "cell-based", "conditions": "2 μM, data not shown", "description": "as §1"}}}
{"molecule": "O=S(=O)(c1ccccc1)N(CC(F)(F)F)c1ccc(C(O)(C(F)(F)F)C(F)(F)F)cc1", "note": "[T0901317]", "values": [{"measurement": "increase of mRNA levels of ABCG4", "setting": "ABCG4 mRNA", "result": 2, "unit": "fold"}, {"measurement": "increase of mRNA levels of ABCG1", "setting": "ABCG1 mRNA", "result": 3, "unit": "fold"}]}
